Like-named read-outs stand apart in the source and are kept apart here.
Assays:
Assay type in all cases: biochemical
aggrecanase-1 = biological target: T1, aggrecanase-1 (Homo sapiens, UniProt O75173); experiment: Aggrecanase-1 inhibitory action (Particle Assay, GAG release from aggrecan-containing polyacrylamide particles)
T1 sequence (O75173 213-837): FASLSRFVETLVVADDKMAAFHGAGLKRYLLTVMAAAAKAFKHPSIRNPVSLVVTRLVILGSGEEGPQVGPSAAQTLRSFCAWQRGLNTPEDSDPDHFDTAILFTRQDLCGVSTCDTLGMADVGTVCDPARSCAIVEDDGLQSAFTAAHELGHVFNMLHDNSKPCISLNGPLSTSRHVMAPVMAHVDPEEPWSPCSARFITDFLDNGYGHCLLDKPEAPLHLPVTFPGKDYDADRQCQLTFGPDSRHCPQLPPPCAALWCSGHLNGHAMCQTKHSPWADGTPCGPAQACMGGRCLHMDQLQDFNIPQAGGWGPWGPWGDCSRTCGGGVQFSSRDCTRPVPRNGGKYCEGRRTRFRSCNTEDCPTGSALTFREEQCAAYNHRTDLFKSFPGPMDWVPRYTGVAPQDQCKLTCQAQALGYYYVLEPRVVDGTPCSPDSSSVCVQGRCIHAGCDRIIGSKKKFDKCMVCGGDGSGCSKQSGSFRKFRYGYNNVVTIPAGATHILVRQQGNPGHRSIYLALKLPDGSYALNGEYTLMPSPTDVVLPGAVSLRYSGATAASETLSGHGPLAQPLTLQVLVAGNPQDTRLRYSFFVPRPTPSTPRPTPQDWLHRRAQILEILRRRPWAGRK
In short: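 Enzyme and compound incubated with aggrecan-containing polyacrylamide particles in Tris-HCl buffer at 37° C for 15 h. Released GAG in supernatant measured with 1,9-dimethylmethylene blue at 595 nm against chondroitin sulfate standard; % inhibition from enzyme-free and inhibitor-free wells, reported as TC50 (μM).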

Recombinant Human MMP-13 = biological target: T2, Recombinant Human MMP-13 (Homo sapiens, UniProt P45452); experiment: MMP-13 inhibitory activity (MMP-13 specific fluorescent substrate with quencher)
T2 construct: purchased R&D systems 511-MM
In short: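 Recombinant human MMP-13 with test compound, reaction started with quenched fluorogenic peptide 7-MCA-Pro-CHA-Gly-NVal-His-Ala-DPA in Tris-HCl buffer, 1 h at 25 °C, stopped with acetic acid. Fluorescence at Ex 325/Em 405 nm; % inhibition versus enzyme-free and inhibitor-free wells, reported as IC50 (μM).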

MMP-1 = biological target: T3, MMP-1 (Homo sapiens, UniProt P03956); experiment: MMP-1 inhibitory action (Type I collagen Activity Measurement kit, FITC-labeled collagen type I)
T3 sequence (P03956 100-469): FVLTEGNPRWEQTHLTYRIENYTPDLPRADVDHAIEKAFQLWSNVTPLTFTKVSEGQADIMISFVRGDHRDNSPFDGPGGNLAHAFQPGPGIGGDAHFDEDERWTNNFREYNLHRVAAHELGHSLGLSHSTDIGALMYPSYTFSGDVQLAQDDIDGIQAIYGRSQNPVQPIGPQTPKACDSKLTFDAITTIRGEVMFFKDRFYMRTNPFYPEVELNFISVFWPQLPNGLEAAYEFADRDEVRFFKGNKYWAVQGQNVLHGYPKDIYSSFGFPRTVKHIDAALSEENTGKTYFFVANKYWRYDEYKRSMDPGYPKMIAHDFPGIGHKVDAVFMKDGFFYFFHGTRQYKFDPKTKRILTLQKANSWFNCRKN

[1] = Experimental Example 1, read-out: IC50 AG1
[2] = Experimental Example 3, read-out: IC50 MMP13
[3] = Experimental Example 2, read-out: IC50 MMP1
[4] = aggrecanase-1 inhibitory action, read-out: IC50 AG1 (Experimental Example 1)
[5] = Recombinant Human MMP-13, fluorescent substrate, 25° C. for 1 h, read-out: IC50 MMP13 (Experimental Example 3)
[6] = MMP-1 inhibitory action, FITC-labeled collagen type I, 37° C. for 3 hr, read-out: IC50 MMP1 (Experimental Example 2)

Compound | IC50 (aggrecanase-1; [1]) | IC50 (Recombinant Human MMP-13; [2]) | IC50 (MMP-1; [3]) | IC50 (aggrecanase-1; [4]) | IC50 (Recombinant Human MMP-13; [5]) | IC50 (MMP-1; [6])
O=C(O)C1(NS(=O)(=O)c2ccc(-c3ccc(Cl)cc3)s2)C2CCNc3ccccc3C21 (stereo not drawn) [Example 2-389] | < 100 nM | < 100 nM | ≥ 1000 nM | – | – | –
O=C(O)C1(NS(=O)(=O)c2ccc(-c3ccc4c(c3)Cc3ccccc3-4)cc2)CC1c1ccccc1 (stereo not drawn) [Example 1-54] | – | – | – | < 1000 nM | < 1000 nM | ≥ 1000 nM
O=C1CCCCN1c1ccc(S(=O)(=O)N[C@@]2(C(=O)O)C[C@@H]2c2ccccc2)s1 [Example 2-164] | – | – | – | ≥ 10000 nM | ≥ 10000 nM | ≥ 10000 nM
O=C(O)C1(NS(=O)(=O)c2ccc(-c3cc(C(F)(F)F)on3)s2)CC1c1cccc([N+](=O)[O-])c1 (stereo not drawn) [Example 2-199] | – | – | – | < 1000 nM | < 1000 nM | ≥ 10000 nM
O=C(O)C1(NS(=O)(=O)c2ccc(-c3cc(C(F)(F)F)on3)s2)CC1c1cc(CO)on1 (stereo not drawn) [Example 2-318] | ≥ 1000 nM | ≥ 10000 nM | ≥ 10000 nM | – | – | –
Nc1cccc(C2CC2(NS(=O)(=O)c2ccc(-c3ccc(Cl)cc3)s2)C(=O)O)c1 (stereo not drawn) [Example 1-128] | – | – | – | < 100 nM | < 1000 nM | ≥ 1000 nM
C[C@]1(c2ccccc2)C[C@@]1(NS(=O)(=O)c1ccc(-c2cc(CF)sn2)s1)C(=O)O [Example 2-121] | – | – | – | < 100 nM | < 100 nM | < 1000 nM
CC1[C@H](c2ccccc2)[C@]1(NS(=O)(=O)N1CCN(c2ccc(Cl)nn2)CC1)C(=O)O (stereo partly drawn) [Example 2-503] | < 1000 nM | < 1000 nM | ≥ 1000 nM | – | – | –
O=C(O)C1(NS(=O)(=O)N2CCC(Oc3ccc(C(F)(F)F)cc3)CC2)CC1c1ccccc1 (stereo not drawn) [Example 2-144] | – | – | – | ≥ 10000 nM | ≥ 1000 nM | ≥ 10000 nM
C[C@@H]1[C@H](c2ccccc2)[C@]1(NS(=O)(=O)c1ccc(-c2cc(C(C)(F)F)on2)s1)C(=O)O [Example 2-9, (1S,2R,3R)-1-{5-[5-(1,1-difluoro-ethyl)-isoxazol-3-yl]-thiophene-2-sulfonylamino}-2-methyl-3-phenyl-cyclopropanecarboxylic acid] | – | – | – | < 100 nM | < 100 nM | < 100 nM
CC1[C@H](c2ccccc2)[C@]1(NS(=O)(=O)c1ccc(-c2cc(C(F)(F)F)no2)s1)C(=O)O (stereo partly drawn) [Example 2-338] | < 100 nM | < 1000 nM | ≥ 1000 nM | – | – | –
O=C(NCC1(c2ccccc2)CC1(NS(=O)(=O)c1ccc(-c2ccc(Cl)cc2)s1)C(=O)O)C1CCCCC1 (stereo not drawn) [Example 2-380] | < 1000 nM | < 1000 nM | ≥ 10000 nM | – | – | –
CC1[C@H](c2ccccc2)[C@]1(NS(=O)(=O)N1CCC(Oc2ccc(Cl)cc2)C1)C(=O)O (stereo partly drawn) [Example 2-500] | ≥ 1000 nM | < 1000 nM | ≥ 1000 nM | – | – | –
C[C@]1(c2ccccc2)C[C@@]1(NS(=O)(=O)c1ccc(-n2cc(S(C)(=O)=O)cn2)s1)C(=O)O [Example 2-602] | < 100 nM | < 1000 nM | < 1000 nM | – | – | –
CC(F)(F)c1cc(-c2ccc(S(=O)(=O)N[C@@]3(C(=O)O)C[C@@H]3c3ccccc3)s2)no1 [Example 2-84] | – | – | – | < 100 nM | < 100 nM | < 1000 nM
O=C(O)C1(NS(=O)(=O)c2ccc(-c3ccc(Cl)cc3)s2)CC1c1cccc(NS(=O)(=O)N2CCOCC2)c1 (stereo not drawn) [Example 2-269] | < 100 nM | < 100 nM | ≥ 1000 nM | – | – | –
COCCN(C)CC1(c2ccccc2)CC1(NS(=O)(=O)c1ccc(-c2cc(C(F)(F)F)on2)s1)C(=O)O (stereo not drawn) [Example 2-336] | ≥ 1000 nM | ≥ 1000 nM | ≥ 10000 nM | – | – | –
O=C(O)[C@]1(NS(=O)(=O)c2ccc3c(c2)CN(C2CCCCC2)C3)C[C@@H]1c1ccccc1 [Example 2-166] | – | – | – | ≥ 10000 nM | ≥ 10000 nM | ≥ 10000 nM

Compound | IC50 (aggrecanase-1; [1]) | IC50 (Recombinant Human MMP-13; [2]) | IC50 (MMP-1; [3]) | IC50 (aggrecanase-1; [4]) | IC50 (Recombinant Human MMP-13; [5]) | IC50 (MMP-1; [6])
CC1[C@H](c2ccccc2)[C@]1(NS(=O)(=O)N1CCN(c2ccc(Cl)cc2F)CC1)C(=O)O (stereo partly drawn) [Example 2-460] | < 1000 nM | < 100 nM | ≥ 1000 nM | – | – | –
Cn1nc(C(F)(F)F)cc1-c1ccc(S(=O)(=O)NC2(C(=O)O)CC2c2ccccc2)s1 (stereo not drawn) [Example 2-14] | – | – | – | ≥ 10000 nM | ≥ 10000 nM | ≥ 10000 nM
CCCc1cc(-c2ccc(S(=O)(=O)N[C@@]3(C(=O)O)C[C@@H]3c3ccccc3)s2)no1 [Example 2-90] | – | – | – | ≥ 1000 nM | < 100 nM | ≥ 1000 nM
C[C@]1(c2ccccc2)C[C@@]1(NS(=O)(=O)c1ccc(-c2ccc(O)cc2)s1)C(=O)O [Example 2-582] | < 1000 nM | < 1000 nM | ≥ 1000 nM | – | – | –
C[C@@H]1[C@H](c2ccccc2)[C@]1(NS(=O)(=O)c1ccc(-c2cc(C(F)(F)F)on2)s1)C(=O)O [Example 2-7, (1S,2R,3R)-2-methyl-3-phenyl-1-[5-(5-trifluoromethyl-isoxazol-3-yl)-thiophene-2-sulfonylamino]-cyclopropanecarboxylic acid] | – | – | – | < 100 nM | < 100 nM | < 1000 nM
COC(=O)N1CC=C(c2ccc(S(=O)(=O)N[C@@]3(C(=O)O)C[C@@H]3c3ccccc3)s2)CC1 [Example 2-3, 4-[5-((1S,2R)-1-carboxy-2-phenyl-cyclopropanesulfamoyl)-thiophene-2-yl]-3,6-dihydro-2H-pyridin-1-carboxylic acid methyl ester] | – | – | – | ≥ 1000 nM | ≥ 1000 nM | ≥ 10000 nM
CC1[C@H](c2ccccc2)[C@]1(NS(=O)(=O)c1ccc(-n2cc(CO)cn2)s1)C(=O)O (stereo partly drawn) [Example 2-561] | < 100 nM | < 100 nM | < 100 nM | – | – | –
O=C(O)[C@]1(NS(=O)(=O)c2ccc(-c3cc(C(F)(F)F)on3)s2)[C@H](CO)[C@@H]1c1ccccc1 (relative stereo) [Example 2-10, (1R*,2R*,3R*)-2-hydroxymethyl-3-phenyl-1-[5-(5-trifluoromethyl-isoxazol-3-yl)-thiophene-2-sulfonylamino]-cyclopropanecarboxylic acid] | – | – | – | < 100 nM | < 100 nM | < 1000 nM
CC1[C@H](c2ccccc2)[C@]1(NS(=O)(=O)c1ccc(-c2cc3ccccc3[nH]2)s1)C(=O)O (stereo partly drawn) [Example 2-493] | < 100 nM | < 100 nM | < 1000 nM | – | – | –
CCOC(=O)c1cc(-c2ccc(S(=O)(=O)N[C@@]3(C(=O)O)C(C)[C@@H]3c3ccccc3)s2)no1 (stereo partly drawn) [Example 2-555] | < 1000 nM | < 1000 nM | ≥ 1000 nM | – | – | –
O=C(O)C1(NS(=O)(=O)c2ccc3c(c2)oc2cc(Cl)ccc23)CC1c1ccccc1 (stereo not drawn) [Example 1-122] | – | – | – | < 100 nM | < 100 nM | ≥ 1000 nM
O=C(NC1CCCC1)c1ccc(S(=O)(=O)NC2(C(=O)O)CC2c2ccccc2)s1 (stereo not drawn) [Example 2-95] | – | – | – | ≥ 10000 nM | ≥ 10000 nM | ≥ 10000 nM
CC(C)(C)C1CC1(NS(=O)(=O)c1ccc(-c2ccc(Cl)cc2)s1)C(=O)O (stereo not drawn) [Example 2-62] | – | – | – | < 1000 nM | < 1000 nM | ≥ 10000 nM
O=C(O)[C@]1(NS(=O)(=O)c2ccc(-c3ccc([N+](=O)[O-])cc3)s2)C[C@@H]1c1ccccc1 [Example 2-388] | < 1000 nM | < 1000 nM | ≥ 1000 nM | – | – | –
O=C(Nc1cccc(C2CC2(NS(=O)(=O)c2ccc(-c3ccc(Cl)cc3)s2)C(=O)O)c1)N1CCOCC1 (stereo not drawn) [Example 2-251] | – | – | – | < 1000 nM | < 1000 nM | ≥ 10000 nM
CCCNC(=O)c1ccc(S(=O)(=O)NC2(C(=O)O)CC2c2ccccc2)s1 (stereo not drawn) [Example 2-93] | – | – | – | ≥ 10000 nM | ≥ 1000 nM | ≥ 10000 nM
CC(C)C1CC1(NS(=O)(=O)c1ccc(-c2ccc(Cl)cc2)s1)C(=O)O (stereo not drawn) [Example 2-59] | – | – | – | < 1000 nM | < 1000 nM | ≥ 10000 nM
CN1CCN(C(=O)OCCCc2cccc(C3CC3(NS(=O)(=O)c3ccc(-c4cc(C(F)(F)F)on4)s3)C(=O)O)c2)CC1 (stereo not drawn) [Example 2-238] | – | – | – | < 1000 nM | < 100 nM | ≥ 1000 nM

Source: patent US20080261994A1, “CYCLOPROPANE COMPOUNDS AND PHARMACEUTICAL USE THEREOF” (Japan Tobacco Inc., priority 2003, published 2008)
